From US9029518B2, “Method of extracting kaempferol-based antioxidants from Solenostemma arghel” (priority 2012, dated 2015)

Tests used:
[1] = DPPH free radical scavenging activity; assay type: biochemical
Description: The antipyretic activity was estimated using Brewer's yeast-induced hyperpyrexia in rats. Both water and total alcohol extracts were separately given orally at doses of 0.25, 0.5 and 1.0 g/kg, respectively. The antioxidant activity was evaluated using 2,2-diphenyl-1-picrylhydrazyl (DPPH) free radical scavenging activity. A 0.05 ml sample of the test compound was added to a methanol solution of DPPH (100 μM 2.95 ml) dissolved in methanol. The compound was added at different concentrations of 2, 4, 6, 8 and 10 mg/ml, respectively, as well as for water, and the total ethanol extracts and fractions. Concentrations of 1, 2, 3, 4 and 5 mg/ml were used for C1 and C2. Equal amounts of methanol were added to the control. Absorbance was recorded at 517 nm at regular intervals of 15 s for 5 min. Ascorbic acid (100 μM) was used as a standard.
The results are shown in Table 4 below, and in FIGS. 4A and 4B.
With regard to antioxidant activity (in vitro), all extracts were tested at concentrations of 2, 4, 6, 8 and 10 mg/ml.

[2] = test system: carrageenan-induced rat paw edema; assay: Carrageenan-induced rat paw edema (anti-inflammatory); assay type: in vivo
Description: The total alcohol (ethanol) extract was given at doses of 0.25, 0.5 and 1 g/kg, respectively, and fractions were given in doses of 0.25 g/kg. […]

[3] = test system: response of mice to hot plate thermal stimulation; assay: Hot plate test (central analgesic activity); assay type: in vivo; settings: for Latency (mean latency time until licking or jumping): time 0 min, hot plate 55° C.; for central analgesic activity compared with methamizol 0.05 g/kg: total ethanol extract 0.25, 0.5 and 1 g/kg, fractions 0.25 g/kg, C1 and C2 0.1 g/kg, I.P.
Description: The total alcoholic extract was given at doses of 0.25, 0.5 and 1.0 g/kg, respectively, fractions were given at doses of 0.25 g/kg, and compounds were given at doses of 0.1 g/kg. The effect of the alcoholic extract, fractions and isolated compounds are shown in FIGS. 3A, 3B and 3C, respectively, and given below in Table 3.
FIGS. 3A, 3B and 3C graphically illustrate the mean latency time (in seconds) until licking or jumping. This was recorded with mice being placed in a glass beaker, which was placed on a hot plate, which was maintained at 55° C. Measurements were taken 20, 60 and 90 minutes, respectively, after intraperitoneal injection of fractions (0.25 g/kg) and the isolated compounds (0.1 g/kg) from Solenostemma arghel, compared with the control group and methamizol.
This effect started after 20 min. and persisted for 90 min. after I.P. administration of the extracts.

[4] = test system: acetic acid-induced writhes in mice; assay: Acetic acid-induced writhes in mice (peripheral analgesic activity); assay type: in vivo

SMILES	Radical scavenging activity (%) ± S.D. ([1]; concentration 1 mg/ml) [%]	Radical scavenging activity (%) ± S.D. ([1]; concentration 2 mg/ml) [%]	Radical scavenging activity (%) ± S.D. ([1]; concentration 3 mg/ml) [%]	Radical scavenging activity (%) ± S.D. ([1]; concentration 4 mg/ml) [%]	Radical scavenging activity (%) ± S.D. ([1]; concentration 5 mg/ml) [%]	% inhibition of control ([2]; dose 0.1 g/kg oral, time 1 h) [%]	% inhibition of control ([2]; dose 0.1 g/kg oral, time 2 h) [%]	% inhibition of control ([2]; dose 0.1 g/kg oral, time 3 h) [%]	Latency (mean latency time until licking or jumping) ([3]; dose 0.1 g/kg I.P.) [s]	central analgesic activity compared with methamizol 0.05 g/kg [3]	% Protection of control ([4]; dose 0.1 g/kg oral) [%]	other results
O=c1c(O[C@@H]2O[C@H](CO)[C@@H](O)[C@H](O)[C@H]2O)c(-c2ccc(O[C@@H]3O[C@H](CO)[C@@H](O)[C@H](O)[C@H]3O)cc2)oc2cc(O)cc(O)c12 [C1, kaempferol-3, 4′-diglucoside]	26.51 ± 1.01	37.94 ± 0.98	52.63 ± 0.99	67.72 ± 1.12	83.40	59.06	71.31	53.93	5.50 ± 0.85	significantly (P<0.05) greater than that of methamizol	59.02	–
C[C@H]1O[C@H](OC[C@H]2O[C@@H](Oc3c(-c4ccc(O)cc4)oc4cc(O)cc(O)c4c3=O)[C@H](O)[C@@H](O)[C@@H]2O)[C@@H](O)[C@@H](O)[C@@H]1O [C2, kaempferol-3-rutinoside]	30.28 ± 1.10	39.64 ± 0.88	65.30 ± 0.98	70.12 ± 1.01	86.50	62.50	70.02	53.60	5.80 ± 0.79	significantly (P<0.05) greater than that of methamizol	68.90	–
O=C(O)Cc1ccccc1Nc1c(Cl)cccc1Cl [Diclofenac sodium, diclofenac sodium, reference compound]	–	–	–	–	–	–	–	–	–	–	–	% inhibition of control ([2]; dose 0.03 g/kg, time 0 h (so in the source)): 30.24%; % inhibition of control ([2]; dose 0.03 g/kg, time 2 h): 48.42%; % inhibition of control ([2]; dose 0.03 g/kg, time 3 h): 54.69%
Cc1c(N(C)CS(=O)(=O)[O-])c(=O)n(-c2ccccc2)n1C.[Na+] [Methamizol, methamizol, reference compound]	–	–	–	–	–	–	–	–	–	–	–	Latency (mean latency time until licking or jumping) ([3]; dose 0.05 g/kg): 5.26 ± 0.94 s; % Protection of control ([4]; dose 0.05 g/kg): 52.32%
O=C1O[C@H]([C@@H](O)CO)C(O)=C1O [ascorbic acid, reference compound]	–	–	–	–	–	–	–	–	–	–	–	scavenging activity towards DPPH radicals ([1]; concentration 100 μM (standard)): 87.8%
